Experimental data taken from ChEMBL document CHEMBL1201862, “PubChem BioAssay data set” (2004).
Active and inactive are the calls of the source.

Columns and labels:
[1] = target: Troponin, cardiac muscle (Homo sapiens, UniProt P19429+P45379+P63316); test: Fluorescence-based biochemical high throughput dose response assay for activators of the calcium sensitivity of cardiac Regulated Thin Filaments (RTF). [Related pubchem assays (depositor defined):AID493008, AID493018, AID504382, AID504383]; format: protein-complex assay
[2] = target: T1, Mannose-6-phosphate isomerase (Homo sapiens, UniProt P34949); test: phosphomannose isomerase inhibition – biochemical, fluorescence intensity, confirmation (AID 1535)
T1 sequence (P34949 whole entry): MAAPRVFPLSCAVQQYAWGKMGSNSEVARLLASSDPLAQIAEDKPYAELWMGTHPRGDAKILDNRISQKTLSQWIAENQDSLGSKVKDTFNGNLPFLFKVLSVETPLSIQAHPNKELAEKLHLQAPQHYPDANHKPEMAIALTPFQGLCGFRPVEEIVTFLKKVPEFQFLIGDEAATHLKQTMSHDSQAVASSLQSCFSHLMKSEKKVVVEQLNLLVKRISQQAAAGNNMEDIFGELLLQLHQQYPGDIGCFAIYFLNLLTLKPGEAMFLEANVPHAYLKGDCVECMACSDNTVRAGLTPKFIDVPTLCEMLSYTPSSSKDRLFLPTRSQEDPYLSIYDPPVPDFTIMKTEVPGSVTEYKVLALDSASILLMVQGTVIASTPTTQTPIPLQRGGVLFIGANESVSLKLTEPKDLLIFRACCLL

[3] = target: Phosphomannomutase 2 (Homo sapiens, UniProt O15305); test: Counter screen SAR assay for PMM2 inhibitors via a fluorescence intensity assay. [Related pubchem assays (depositor defined):AID1545, AID1574]
Phosphomannomutase 2, sequence (O15305 whole entry): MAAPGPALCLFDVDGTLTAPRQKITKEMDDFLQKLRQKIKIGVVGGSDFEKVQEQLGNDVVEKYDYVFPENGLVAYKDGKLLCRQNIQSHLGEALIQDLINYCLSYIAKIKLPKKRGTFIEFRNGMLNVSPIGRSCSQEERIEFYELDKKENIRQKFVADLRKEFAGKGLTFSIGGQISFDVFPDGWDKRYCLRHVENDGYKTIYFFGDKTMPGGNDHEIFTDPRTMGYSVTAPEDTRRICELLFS

[4] = Trypanosoma cruzi growth suppression in host cells – NIH3T3 host cells, beta-gal luminescence, confirmation (AID 2044); format: functional, cell-based;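 further: intracellular parasites grown in NIH/3T3 mouse fibroblasts as host cells; luminescent beta-galactosidase reporter signal from transgenic T. cruzi replicating inside host cells; inhibitors lower the luminescence signal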
[5] = test system: Vero; test: cells; format: functional; conditions: Chlorocebus sabaeus
[6] = THP-1 cell cytotoxicity, dose response, cytotoxicity control for non-replicating M. tuberculosis project (AID 489025); format: functional
[7] = Vero E6 cell cytotoxicity, dose response, cytotoxicity control for non-replicating M. tuberculosis project, secondary assay (AID 492998); format: functional, VeroE6; conditions: Vero C1008
[8] = HepG2 cell cytotoxicity, dose response, cytotoxicity control for non-replicating M. tuberculosis project (AID 489018); format: functional; conditions: Mycobacterium tuberculosis
[9] = NIH3T3 cell viability loss – ATP luminescence, mouse fibroblasts, counter-screen, dose response (AID 2010); format: functional, cell-based;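 further: cells exposed to compound for about 90 hours before reading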
[10] = cells; format: functional
[11] = target: G-protein coupled receptor 55 (Homo sapiens, UniProt Q9Y2T6); test: selective activators of receptor GPR55 – imaging, U2OS cells, beta-arrestin-GFP redistribution, primary screen (AID 1961); format: functional
G-protein coupled receptor 55, sequence (Q9Y2T6 whole entry): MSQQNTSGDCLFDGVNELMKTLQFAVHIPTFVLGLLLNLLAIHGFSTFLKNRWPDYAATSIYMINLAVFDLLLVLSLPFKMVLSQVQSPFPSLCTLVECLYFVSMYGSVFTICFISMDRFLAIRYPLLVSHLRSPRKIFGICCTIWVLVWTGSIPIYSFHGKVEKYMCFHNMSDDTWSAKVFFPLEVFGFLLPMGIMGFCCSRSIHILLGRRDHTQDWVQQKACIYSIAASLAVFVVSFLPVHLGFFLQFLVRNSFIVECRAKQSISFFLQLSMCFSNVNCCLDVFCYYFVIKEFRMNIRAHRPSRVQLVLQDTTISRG

[12] = target: T2, Short transient receptor potential channel 4 (Mus musculus, UniProt Q9QUQ5); test: potentiation of DAMGO-evoked TRPC4 calcium signal – cell-based, HEK293 TRPC4/mu-opioid, Fluo-4 calcium, EC20 DAMGO, dose response (AID 434941); format: functional
T2 sequence (Q9QUQ5 whole entry): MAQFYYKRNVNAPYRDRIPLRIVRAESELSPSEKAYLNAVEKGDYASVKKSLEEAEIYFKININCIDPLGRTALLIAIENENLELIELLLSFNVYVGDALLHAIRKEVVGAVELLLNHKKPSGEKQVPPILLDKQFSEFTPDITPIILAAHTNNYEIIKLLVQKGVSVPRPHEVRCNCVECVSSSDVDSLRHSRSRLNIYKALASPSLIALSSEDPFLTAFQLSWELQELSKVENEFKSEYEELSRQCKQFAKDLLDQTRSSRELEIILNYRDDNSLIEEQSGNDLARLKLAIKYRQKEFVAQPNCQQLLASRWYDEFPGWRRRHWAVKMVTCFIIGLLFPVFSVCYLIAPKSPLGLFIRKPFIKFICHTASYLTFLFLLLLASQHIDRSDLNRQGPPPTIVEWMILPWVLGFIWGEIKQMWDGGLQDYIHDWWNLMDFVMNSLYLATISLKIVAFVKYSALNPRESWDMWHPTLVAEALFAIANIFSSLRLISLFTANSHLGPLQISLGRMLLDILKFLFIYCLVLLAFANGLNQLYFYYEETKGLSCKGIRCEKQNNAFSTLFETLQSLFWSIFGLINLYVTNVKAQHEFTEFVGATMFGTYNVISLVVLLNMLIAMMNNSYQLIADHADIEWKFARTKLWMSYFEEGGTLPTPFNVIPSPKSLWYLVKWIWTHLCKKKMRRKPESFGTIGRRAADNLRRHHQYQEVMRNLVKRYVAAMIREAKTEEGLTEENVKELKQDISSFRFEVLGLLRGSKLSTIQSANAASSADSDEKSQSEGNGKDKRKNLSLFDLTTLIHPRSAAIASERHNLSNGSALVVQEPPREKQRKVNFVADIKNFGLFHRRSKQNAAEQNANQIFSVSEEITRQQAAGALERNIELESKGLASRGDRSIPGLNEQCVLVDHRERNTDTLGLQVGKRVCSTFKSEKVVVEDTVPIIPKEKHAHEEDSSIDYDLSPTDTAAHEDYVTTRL

**Q.** Which EC50 [1] does the source give for `Cc1cc(S(=O)(=O)N2CCCC(C(=O)Nc3ccc(C(=O)O)cc3)C2)ccc1Cl` (configuration not stated) here?
**A.** > 71.5 µM (inactive)

**Q.** With `CCOC(=O)c1ccc(NC2Nc3cc(C)nn3S2)cc1` (configuration not stated) as the molecule, how does the IC50 [2] read?
**A.** > 50 µM (inactive)

**Q.** And the IC50 [3]?
**A.** > 100 µM (inactive)

**Q.** With `O=C(Nc1nc2ccccc2n1CCOc1ccc(Cl)cc1)c1ccco1` as the molecule, how does the EC50 [4] read?
**A.** 2.02 µM (active)

**Q.** What about the CC50 [5] of the same molecule?
**A.** 14 µM (active)

**Q.** And the CC50 [6]?
**A.** 34.4 µM (active)

**Q.** And the CC50 [7]?
**A.** 9.25 µM (active)

**Q.** And the CC50 [8]?
**A.** > 20 µM (active)

**Q.** What about the EC50 [9] of the same molecule?
**A.** 8.97 µM (active)

**Q.** And the IC50 [10]?
**A.** 9.2 µM (active)

**Q.** Which EC50 [11] does the source give for `O=C(CSc1nc2ccccc2s1)N1c2ccccc2Sc2ccccc21` here?
**A.** 12.7 µM (inactive)

**Q.** Which EC50 [12] does the source give for `Cc1cc(-c2ccc(C)c(S(=O)(=O)N3CCN(C(=O)c4ccco4)CC3)c2)on1` here?
**A.** 6.68 µM (active)
